From patent publication US20160017273A1, “SPERM SELECTION UNIT STRUCTURE, SPERM SCREENING DEVICE PROVIDED WITH SPERM SELECTION UNIT STRUCTURE, AND METHOD OF PREPARING SEMEN FOR FERTILIZATION” (NATIONAL INSTITUTE OF ADVANCED INDUSTRIAL SCIENCE AND …, priority 2013, published 2016)

System: sperm of thawed frozen semen
Test: ratio between X sperm and Y sperm (real time PCR) in semen recovered by the sperm screening device after the sperm preservation step with a phenoxazine compound
Assay type: cell-based, Holstein cattle
Settings: 25 μM brilliant cresyl blue + 5 mM glucose-6-phosphate, no electron accepting substance added, 5% CO2
Protocol: Frozen semen of WHO OCEANIC JOVIAN ET (Holstein cattle) was thawed in accordance with the predetermined steps, 200 μl of thawed semen was sampled and was put into a tube having a capacity of 1.5 ml. Then, semen was subjected to the centrifugal separation (7 minutes, 2000 rpm), and a half of supernatant of the semen after being subjected to the centrifugal separation was thrown away and approximately 1004 of semen was left in the tube.
An approximately 100 μL of buffer solution (obtained by adding 6 mg/mL BSA+10 μg/mL of gentamycin+5 mM EGTA to the commercially available “SP-TALP” solution) is added into the tube, the buffer solution is stirred lightly and, thereafter, the buffer solution was incubated for 50 minutes at 37° with 5% CO2.
Next, the tube was subjected to the centrifugal separation again (7 minutes, 2000 rpm), and a supernatant of the solution was thrown away, and an approximately 100 μL of buffer solution (obtained by adding 6 mg/mL BSA+10 […] to the commercially available “SP-TALP” solution; not containing EGTA) was added into the tube and, thereafter, the solution was stirred lightly.
The tube was subjected to the centrifugal separation again (7 minutes, 2000 rpm), and 100 μL of a supernatant of the solution was thrown away, and an approximately 100 μL of buffer solution (obtained by adding 6 mg/mL BSA+10 μg/mL gentamycin +25 μM brilliant cresyl blue +5 mM glucose-6-phosphate to the commercially available “SP-TALP” solution) was added into the tube and, thereafter, the solution was incubated at 37° C. with 5% CO2 (sperm preservation step). […]
Thereafter, sperm having high motility were recovered by using the sperm screening device according to this embodiment. Then, with respect to the acquired semen for artificial insemination, a ratio between X sperm and Y sperm was investigated using a real time PCR method.

[1] = incubation 30 minutes at 37° C.
[2] = incubation 50 minutes at 37° C.

## brilliant cresyl blue
[1]
  ratio of X sperm: 39%
  ratio of Y sperm: 61%
[2]
  ratio of X sperm: 35%
  ratio of Y sperm: 65%
